Measurements as given in the NIST ThermoML archive (doi:10.1021/je9004068).

How the values were obtained:
[1] = for mass density: 298.15 K, 101.33 kPa; for mass density / vapor or sublimation pressure: Liquid; for surface tension liquid-gas: 303.15 K, Maximal bubble pressure
[2] = refractive index (Na D-line) (dimensionless); details: 298.15 K; 101.33 kPa; Liquid; Standard Abbe refractometry
[3] = xn = mol fraction of the nth substance listed; details: 303.15 K, Maximal bubble pressure

COC(C)(C)C [2-methoxy-2-methylpropane]
Details	mass density [kg/m3]	refractive index	surface tension liquid-gas [mN/m]
[1]	735.45	–	18.7
[2]	–	1.36766	–

[1]
Details	vapor or sublimation pressure [kPa]
308.3 K	50
319.39 K	75
325.98 K	94

COC(C)(C)C [2-methoxy-2-methylpropane] + CCO
[3]
Details	surface tension liquid-gas [mN/m]
x2 = 0.102	18.39
x2 = 0.212	18.38
x2 = 0.31	18.54
x2 = 0.408	18.84
x2 = 0.527	19
x2 = 0.623	19.21
x2 = 0.721	19.56
x2 = 0.826	20.03

CCO [ethanol]
Details	mass density [kg/m3]	refractive index	surface tension liquid-gas [mN/m]
[1]	785.05	–	21.7
[2]	–	1.36068	–

[1]
Details	vapor or sublimation pressure [kPa]
310.89 K	16.01
318.88 K	24.01
323.51 K	30.01
328.54 K	38.01
332.24 K	45.01
334.57 K	50
335.05 K	51.01
338.38 K	59.01
341.01 K	66.01
343.4 K	73.01
344.02 K	75
345.61 K	80.01
347.66 K	87.01
349.56 K	94
349.58 K	94.01
351.65 K	102.07
